26 compounds from patent US20240336593A1, “Compound Having Antitumor Activity And Use Thereof” (lnnovStoneTherapeutics Limited, priority 2020, published 2024) can be followed below.

For this test, the target named is PRMT5 (Homo sapiens (Human), UniProt O14744). Briefly: Inhibitory activity against PRMT5 enzyme by radioisotopic method. The format is biochemical. The settings on record: PRMT5 5 nM, [3H]-SAM 0.3 μM, polypeptide substrate GL-27 100 nM, room temperature. As to the method: Test Example 1. Test on the inhibitory activity of the compounds of the invention against PRMT5 enzyme by radioisotopic method
Chain of PRMT5 (O14744 whole entry): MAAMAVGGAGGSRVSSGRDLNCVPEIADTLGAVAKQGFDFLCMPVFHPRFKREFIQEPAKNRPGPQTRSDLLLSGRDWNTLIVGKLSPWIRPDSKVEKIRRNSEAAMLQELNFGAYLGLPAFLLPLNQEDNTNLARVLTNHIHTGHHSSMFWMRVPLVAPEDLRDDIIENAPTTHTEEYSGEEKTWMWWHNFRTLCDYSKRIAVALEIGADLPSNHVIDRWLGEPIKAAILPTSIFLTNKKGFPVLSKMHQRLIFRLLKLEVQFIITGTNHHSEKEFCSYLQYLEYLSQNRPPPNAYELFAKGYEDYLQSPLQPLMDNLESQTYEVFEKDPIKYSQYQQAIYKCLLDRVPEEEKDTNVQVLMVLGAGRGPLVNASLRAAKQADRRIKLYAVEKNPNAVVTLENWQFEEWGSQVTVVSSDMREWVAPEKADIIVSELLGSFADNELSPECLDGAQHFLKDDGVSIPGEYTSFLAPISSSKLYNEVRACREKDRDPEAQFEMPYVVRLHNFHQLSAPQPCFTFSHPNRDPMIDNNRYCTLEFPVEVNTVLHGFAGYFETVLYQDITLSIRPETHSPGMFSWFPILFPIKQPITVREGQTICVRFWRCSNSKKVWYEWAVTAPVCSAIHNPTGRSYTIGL
Chain of PRMT5 (Q9BQA1 whole entry partner): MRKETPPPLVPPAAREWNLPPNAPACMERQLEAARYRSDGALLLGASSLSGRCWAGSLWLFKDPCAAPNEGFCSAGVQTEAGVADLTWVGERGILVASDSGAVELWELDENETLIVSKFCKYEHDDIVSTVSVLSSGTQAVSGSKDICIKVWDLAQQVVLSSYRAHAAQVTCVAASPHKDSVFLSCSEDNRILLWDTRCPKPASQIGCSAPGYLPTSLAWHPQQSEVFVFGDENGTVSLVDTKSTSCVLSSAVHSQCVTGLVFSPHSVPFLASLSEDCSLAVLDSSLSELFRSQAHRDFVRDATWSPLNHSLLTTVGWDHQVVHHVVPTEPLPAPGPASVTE
Test method: A 1× enzyme reaction buffer (10 mM Tris 8.0 (Sigma, Cat. No. T2694-1L), 0.01% Tween-20 (Sigma, Cat. No. P2287-100 ML), 1 mM DTT (Sigma, Cat. No. D0632-10G)) was prepared. PRMT5 (Active Motif, Cat. No. 31921) and [3H]—SAM (PerkinElmer, Cat. No. NET155V001MC) were added to the 1×enzyme reaction buffer, to prepare a 25/15× mixed solution (PRMT5 final concentration: 5 nM, [3H]—SAM final concentration: 0.3 μM). 15 μL of this solution was transferred into a 384-well microplate (Corning 384-well Polypropylene Storage Microplates, Cat. No. 3657) with various concentrations of the compounds (DMSO final concentration 1%), and incubated at room temperature for 60 minutes. A polypeptide substrate, GL-27 (Ac-[…]-K (Biotin) (GL Biochem, Cat. No. 342095)), was added into the 1×enzyme reaction buffer to prepare a 25/10× substrate solution. Then 10 μL of the polypeptide substrate solution (final concentration of the polypeptide substrate: 100 nM) was added, a reaction was stirred at room temperature for 120 minutes, and then 5 μL 6× ice cold SAM (Sigma, Cat. No. A7007-100 MG) solution was added to stop the reaction (SAM final concentration: 0.125 mM). 25 µL of the reaction mixture was transferred into a FlashPlate (Streptavidin FlashPlate HTS PLUS, High Capacity, 384-well, Perkin Elmer, Cat. No. SMP410A001PK), and incubated at room temperature for 1 h. After washed three times with distilled water containing 0.1% Tween-20, the microplate was read on a MicroBeta reader for CPM data (Counts Per Minute). […] Then the inhibition rate Inh % (Y) corresponding to each concentration (X) was input in EXCEL, and the IC50 value (the half maximal inhibitory concentration) of each compound was calculated with the XLfit plug-in according to the built-in four-parameter fitting equation Y=Bottom+(Top-Bottom)/(1+(IC50/X)[…]).
In turn, `C#Cc1nc(NC2CCN(C(C)=O)CC2)cc(C(=O)N2CC[C@@H](N3CCc4ccccc4C3)[C@H](O)C2)n1` [Example 150, 1-(4-((6-((3R,4R)-4-(3,4-dihydroisoquinolin-2(1H)-yl)-3-hydroxypiperidine-1-carbonyl)-2-ethynylpyrimidin-4-yl)amino)piperidin-1-yl)ethan-1-one] came in with an IC50 of less than 100 nM.

Take `O[C@H]1CN(c2cc(Nc3ccccc3)ncn2)CC[C@@H]1N1CCc2ccccc2C1` (relative stereo) [Example 24, trans-4-(3,4-dihydroisoquinolin-2(1H)-yl)-1-(6-(phenylamino)-pyrimidin-4-yl)piperidin-3-ol]: the concentration for half-maximal inhibition (IC50) was less than 100 nM.

For the compound `CC(=O)N1CCC(Nc2cc(C(=O)N3CC[C@@H](N4CCc5ccccc5C4)[C@H](O)C3)nc(OC(F)(F)F)n2)CC1` [Example 151, 1-(4-((6-((3R,4R)-4-(3,4-dihydroisoquinolin-2(1H)-yl)-3-hydroxypiperidine-1-carbonyl)-2-(trifluoromethoxy)pyrimidin-4-yl)amino)piperidin-1-yl)ethan-1-one], the IC50 is less than 100 nM.

On to `O=C(c1cc(NC2CCN(CC(F)(F)F)CC2)ncn1)N1CC[C@H](O)[C@@H](N2CCc3ccccc3C2)CC1` [Example 127], for which the IC50 is less than 100 nM.

Consider `CC(=O)N1CCC(Nc2cc(C(=O)N3CC[C@H](N4CCc5ccccc5C4)[C@@H](O)C3)nc(C)n2)CC1` (relative stereo) [Example 111, trans-1-(4-((6-(4-(3,4-dihydroisoquinolin-2(1H)-yl)-3-hydroxypiperidine-1-carbonyl)-2-methylpyrimidin-4-yl)amino)piperidin-1-yl)ethan-1-one], for which the half-inhibitory concentration (IC50) is less than 100 nM.

In the case of `CC(=O)N1CCC(Nc2cc(C(=O)N3CC[C@H](N4CCc5ccccc5C4)[C@@H](O)C3)c(C(F)(F)F)cn2)CC1` (relative stereo) [Example 102, trans-1-(4-((4-(4-(3,4-dihydroisoquinolin-2(1H)-yl)-3-hydroxypiperidine-1-carbonyl)-5-(trifluoromethyl)pyridin-2-yl)amino)piperidin-1-yl)ethan-1-one], the IC50 is less than 100 nM.

As for `O[C@@H]1CN(c2cc(Nc3ccccc3N3CCCC3)ncn2)CC[C@H]1N1CCc2ccccc2C1` (relative stereo) [Example 80, trans-4-(3,4-dihydroisoquinolin-2(1H)-yl)-1-(6-((2-(pyrrolidin-1-yl)phenyl)amino)pyrimidin-4-yl)piperidin-3-ol], the IC50 is less than 100 nM.

Consider `O[C@H]1CN(c2cc(Nc3ccccc3-c3ccccc3)ncn2)CC[C@@H]1N1CCc2ccccc2C1` (relative stereo) [Example 66, trans-1-(6-([1,1′-biphenyl]-2-ylamino)pyrimidin-4-yl)-4-(3,4-dihydro-isoquinolin-2(1H)-yl)piperidin-3-ol], for which the IC50 was less than 100 nM.

`N#CC1CCC(Nc2cc(C(=O)N3CC[C@H](N4CCc5ccccc5C4)[C@@H](O)C3)ncn2)CC1` (stereo partly drawn) [Example 138, 4-((6-(trans-4-(3,4-dihydroisoquinolin-2(1H)-yl)-3-hydroxypiperidine-L-carbonyl)pyrimidin-4-yl)amino)cyclohexane-1-carbonitrile] displayed an IC50 of less than 100 nM.

`CC(=O)N1CCC(Nc2cc(C(=O)N3CC[C@H](N4CCc5ccccc5C4)[C@@H](O)C3)ncn2)CC1` (relative stereo) [Example 17, trans-1-(4-((6-(4-(3,4-dihydroisoquinolin-2(1H)-yl)-3-hydroxypiperidine-1-carbonyl)pyrimidin-4-yl)amino)piperidin-1-yl)ethanone]: the 50% inhibitory concentration (IC50) is less than 100 nM.

`O[C@H]1CN(c2cc(Nc3cccc(F)c3)ncn2)CC[C@@H]1N1CCc2ccccc2C1` (relative stereo) [Example 42, trans-1-(6-((3-fluorophenyl)amino)pyrimidin-4-yl)-4-(3,4-dihydroisoquinolin-2(1H)-yl)piperidin-3-ol]: the concentration for half-maximal inhibition (IC50) is less than 100 nM.

In the case of `O[C@H]1CN(c2cc(Nc3ccc(N4CCOCC4)cc3)ncn2)CC[C@@H]1N1CCc2ccccc2C1` (relative stereo) [Example 49, trans-4-(3,4-dihydroisoquinolin-2(1H)-yl)-1-(6-((4-morpholinylphenyl)amino)pyrimidin-4-yl)piperidin-3-ol], the 50% inhibitory concentration (IC50) is less than 100 nM.

With `O[C@H]1CN(c2cc(Nc3ccccc3OC(F)(F)F)ncn2)CC[C@@H]1N1CCc2ccccc2C1` (relative stereo) [Example 84, trans-4-(3,4-dihydroisoquinolin-2(1H)-yl)-1-(6-((2-(trifluoromethoxy)-phenyl)amino)pyrimidin-4-yl)piperidin-3-ol], the half-inhibitory concentration (IC50) is less than 100 nM.

`CC(=O)N1CCC(Nc2cc(C(=O)N3CC[C@H](N4CCc5ccccc5C4)[C@@H](O)C3)nc(Cl)n2)CC1` (relative stereo) [Example 117, trans-1-(4-((2-chloro-6-(4-(3,4-dihydroisoquinolin-2(1H)-yl)-3-hydroxypiperidine-1-carbonyl)pyrimidin-4-yl)amino)piperidin-1-yl)ethan-1-one]: the IC50 is less than 100 nM.

As to `O[C@@H]1CN(c2cc(Nc3cccc(Cl)c3Cl)ncn2)CC[C@H]1N1CCc2ccccc2C1` [Example 89], the IC50 was less than 100 nM.

Turning to `CCC(CC)Oc1nc(NC2CCN(C(=O)C3CC(F)(F)C3)CC2)cc(C(=O)N2CC[C@@H](N3CCc4ccccc4C3)[C@H](O)C2)n1` [Example 156, (6-((1-(3,3-difluorocyclobutane-1-carbonyl)piperidin-4-yl)amino)-2-(pentan-3-oxy)pyrimidin-4-yl)((3R,4R)-4-(3,4-dihydroisoquinolin-2(1H)-yl)-3-hydroxy-piperidin-1-yl)ketone], the IC50 is less than 100 nM.

As to `O=C(c1cc(Nc2cccc(N3CCCC3)c2)ncn1)N1CC[C@H](N2CCc3ccccc3C2)[C@@H](O)C1` [Example 108], the IC50 was less than 100 nM.

Turning to `O=C(c1cc(N2CC[C@H](N3CCc4ccccc4C3)[C@@H](O)C2)ncn1)N1CC[C@H](N2CCc3ccccc3C2)[C@@H](O)C1` [Example 97], the IC50 was less than 100 nM.

`CC(C)(C)c1ccccc1Nc1cc(N2CC[C@H](N3CCc4ccccc4C3)[C@@H](O)C2)ncn1` (relative stereo) [Example 56, trans-4-(3,4-dihydroisoquinolin-2(1H)-yl)-1-(6-((2-t-butylphenyl)amino)pyrimidin-4-yl)piperidin-3-ol] yielded a half-maximal inhibitory concentration (IC50) of less than 100 nM.

On to `O[C@H]1CN(c2cc(Nc3ccccc3N3CCOCC3)ncn2)CC[C@@H]1N1CCc2ccccc2C1` (relative stereo) [Example 50, trans-4-(3,4-dihydroisoquinolin-2(1H)-yl)-1-(6-((2-morpholinylphenyl)-amino)pyrimidin-4-yl)piperidin-3-ol], for which the IC50 is less than 100 nM.

`CC(=O)N1CCC(Nc2cc(C(=O)N3CC[C@@H](N4CCc5ccccc5C4)[C@H](O)C3)nc(OCC(C)C)n2)CC1` [Example 140, 1-(4-((6-((3R,4R)-4-(3,4-dihydro-4,4-dideuterium-isoquinolin-2(1H)-yl)-3-hydroxypiperidine-1-carbonyl)-2-isobutoxypyrimidin-4-yl)amino)piperidin-1-yl)ethan-1-one] registered an IC50 of less than 100 nM.

As for `C=Cc1nc(NC2CCN(C(C)=O)CC2)cc(C(=O)N2CC[C@@H](N3CCc4ccccc4C3)[C@H](O)C2)n1` [Example 152, 1-(4-((6-((3R,4R)-4-(3,4-dihydroisoquinolin-2(1H)-yl)-3-hydroxypiperidine-1-carbonyl)-2-vinylpyrimidin-4-yl)amino)piperidin-1-yl)ethan-1-one], the IC50 is less than 100 nM.

In turn, `O[C@H]1CN(c2cc(Nc3ccccc3Cl)ncn2)CC[C@@H]1N1CCc2ccccc2C1` (relative stereo) [Example 54, trans-4-(3,4-dihydroisoquinolin-2(1H)-yl)-1-(6-((2-chlorophenyl)amino)pyrimidin-4-yl)piperidin-3-ol] returned an IC50 of less than 100 nM.

With `O[C@H]1CN(c2cc(Nc3ccc(F)c(F)c3)ncn2)CC[C@@H]1N1CCc2ccccc2C1` (relative stereo) [Example 78, trans-1-(6-((3,4-difluorophenyl)amino)pyrimidin-4-yl)-4-(3,4-dihydroisoquinolin-2(1H)-yl)piperidin-3-ol], the IC50 was less than 100 nM.

On to `COc1ccccc1Nc1cc(N2CC[C@H](N3CCc4ccccc4C3)[C@@H](O)C2)ncn1` (relative stereo) [Example 57, trans-4-(3,4-dihydroisoquinolin-2(1H)-yl)-1-(6-((2-methoxyphenyl)amino)pyrimidin-4-yl)piperidin-3-ol], for which the concentration for half-maximal inhibition (IC50) was less than 100 nM.

Compound `O=C(C(=O)N1CCC(Nc2cc(C(=O)N3CC[C@H](N4CCc5ccccc5C4)[C@@H](O)C3)ncn2)CC1)C1CC1` (relative stereo) [Example 99, trans-1-cyclopropyl-2-(4-((6-(4-(3,4-dihydroisoquinolin-2(1H)-yl)-3-hydroxypiperidine-1-carbonyl)pyrimidin-4-yl)amino)piperidin-1-yl)ethane-1,2-dione] came in with a half-inhibitory concentration (IC50) of less than 100 nM.

In general, IC50 refers to the concentration at which inhibition is half-maximal. Read a high IC50 as a need for much substance.
